Reference: PubChem BioAssay (NCI)
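GI50: concentration for 50% inhibition of growth. TGI: concentration producing complete growth inhibition.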

Key:
Assay in all cases: NCI anticancer screen, dose series, 384-well format
[1] = system: 786-0 renal
[2] = system: A498 renal
[3] = system: A549 NSCLC
[4] = system: ACHN renal
[5] = system: BT-549 breast
[6] = system: CAKI-1 renal
[7] = system: CCRF-CEM leukemia
[8] = system: COLO 205 colon
[9] = system: DU-145 prostate
[10] = system: HCC-2998 colon
[11] = system: HCT-116 colon
[12] = system: HCT-15 colon
[13] = system: HL-60(TB) leukemia
[14] = system: HOP-62 NSCLC
[15] = system: HOP-92 NSCLC
[16] = system: HT29 colon
[17] = system: IGROV1 ovarian
[18] = system: K-562 leukemia
[19] = system: KM12 colon
[20] = system: LOX IMVI melanoma
[21] = system: M14 melanoma
[22] = system: MALME-3M melanoma
[23] = system: MCF7 breast
[24] = system: MDA-MB-231 breast
[25] = system: MDA-MB-435 melanoma
[26] = system: MDA-MB-468 breast
[27] = system: MOLT-4 leukemia
[28] = system: NCI-H226 lung
[29] = system: NCI-H23 lung
[30] = system: NCI-H322M lung
[31] = system: NCI-H460 NSCLC
[32] = system: NCI-H522 lung
[33] = system: NCI/ADR-RES ovarian
[34] = system: OVCAR-3 ovarian
[35] = system: OVCAR-4 ovarian
[36] = system: OVCAR-5 ovarian
[37] = system: OVCAR-8 ovarian
[38] = system: PC-3 prostate
[39] = system: RXF 393 renal
[40] = system: SF-268 CNS
[41] = system: SF-295 CNS
[42] = system: SF-539 CNS
[43] = system: SK-MEL-2 melanoma
[44] = system: SK-MEL-28 melanoma
[45] = system: SK-MEL-5 melanoma
[46] = system: SK-OV-3 ovarian
[47] = system: SN12C renal
[48] = system: SNB-19 CNS
[49] = system: SR leukemia
[50] = system: SW-620 colon
[51] = system: T-47D breast
[52] = system: TK-10 renal
[53] = system: U251 glioblastoma
[54] = system: UACC-257 melanoma
[55] = system: UACC-62 melanoma
[56] = system: UO-31 renal

Question: How did the GI50 [1] turn out when `CN(c1ccc(C#N)c(Cl)c1)C1CCC(NC(=O)c2ccc(N3CCN(C4CN(c5ccc6c(c5)C(=O)N(C5CCC(=O)NC5=O)C6=O)C4)CC3)cc2)CC1` (configuration not stated) was run?
Answer: > 100 µM

Question: And the TGI [1]?
Answer: > 100 µM

Question: What about the GI50 [2] of the same molecule?
Answer: > 100 µM

Question: What about the TGI [2] of the same molecule?
Answer: > 100 µM

Question: And the GI50 [3]?
Answer: > 100 µM

Question: And the TGI [3]?
Answer: > 100 µM

Question: And the GI50 [4]?
Answer: > 100 µM

Question: And the TGI [4]?
Answer: > 100 µM

Question: What about the GI50 [5] of the same molecule?
Answer: > 100 µM

Question: And the TGI [5]?
Answer: > 100 µM

Question: And the GI50 [6]?
Answer: > 100 µM

Question: And the TGI [6]?
Answer: > 100 µM

Question: What about the GI50 [7] of the same molecule?
Answer: > 100 µM

Question: And the TGI [7]?
Answer: > 100 µM

Question: What about the GI50 [8] of the same molecule?
Answer: > 100 µM

Question: And the TGI [8]?
Answer: > 100 µM

Question: What about the GI50 [9] of the same molecule?
Answer: > 100 µM

Question: What about the TGI [9] of the same molecule?
Answer: > 100 µM

Question: And the GI50 [10]?
Answer: > 100 µM

Question: And the TGI [10]?
Answer: > 100 µM

Question: What about the GI50 [11] of the same molecule?
Answer: > 100 µM

Question: And the TGI [11]?
Answer: > 100 µM

Question: And the GI50 [12]?
Answer: > 100 µM

Question: And the TGI [12]?
Answer: > 100 µM

Question: What about the GI50 [13] of the same molecule?
Answer: > 100 µM

Question: And the TGI [13]?
Answer: > 100 µM

Question: And the GI50 [14]?
Answer: > 100 µM

Question: What about the TGI [14] of the same molecule?
Answer: > 100 µM

Question: And the GI50 [15]?
Answer: > 100 µM

Question: What about the TGI [15] of the same molecule?
Answer: > 100 µM

Question: And the GI50 [16]?
Answer: > 100 µM

Question: And the TGI [16]?
Answer: > 100 µM

Question: What about the GI50 [17] of the same molecule?
Answer: > 100 µM

Question: What about the TGI [17] of the same molecule?
Answer: > 100 µM

Question: And the GI50 [18]?
Answer: > 100 µM

Question: What about the TGI [18] of the same molecule?
Answer: > 100 µM

Question: What about the GI50 [19] of the same molecule?
Answer: > 100 µM

Question: What about the TGI [19] of the same molecule?
Answer: > 100 µM

Question: What about the GI50 [20] of the same molecule?
Answer: > 100 µM

Question: And the TGI [20]?
Answer: > 100 µM

Question: And the GI50 [21]?
Answer: > 100 µM

Question: And the TGI [21]?
Answer: > 100 µM

Question: And the GI50 [22]?
Answer: > 100 µM

Question: What about the TGI [22] of the same molecule?
Answer: > 100 µM

Question: And the GI50 [23]?
Answer: > 100 µM

Question: And the TGI [23]?
Answer: > 100 µM

Question: What about the GI50 [24] of the same molecule?
Answer: > 100 µM

Question: And the TGI [24]?
Answer: > 100 µM

Question: And the GI50 [25]?
Answer: > 100 µM

Question: What about the TGI [25] of the same molecule?
Answer: > 100 µM

Question: And the GI50 [26]?
Answer: > 100 µM

Question: What about the TGI [26] of the same molecule?
Answer: > 100 µM

Question: What about the GI50 [27] of the same molecule?
Answer: > 100 µM

Question: What about the TGI [27] of the same molecule?
Answer: > 100 µM

Question: And the GI50 [28]?
Answer: > 100 µM

Question: What about the TGI [28] of the same molecule?
Answer: > 100 µM

Question: What about the GI50 [29] of the same molecule?
Answer: > 100 µM

Question: And the TGI [29]?
Answer: > 100 µM

Question: What about the GI50 [30] of the same molecule?
Answer: > 100 µM

Question: And the TGI [30]?
Answer: > 100 µM

Question: And the GI50 [31]?
Answer: > 100 µM

Question: What about the TGI [31] of the same molecule?
Answer: > 100 µM

Question: What about the GI50 [32] of the same molecule?
Answer: > 100 µM

Question: What about the TGI [32] of the same molecule?
Answer: > 100 µM

Question: And the GI50 [33]?
Answer: > 100 µM

Question: What about the TGI [33] of the same molecule?
Answer: > 100 µM

Question: And the GI50 [34]?
Answer: > 100 µM

Question: And the TGI [34]?
Answer: > 100 µM

Question: And the GI50 [35]?
Answer: > 100 µM

Question: What about the TGI [35] of the same molecule?
Answer: > 100 µM

Question: And the GI50 [36]?
Answer: > 100 µM

Question: And the TGI [36]?
Answer: > 100 µM

Question: What about the GI50 [37] of the same molecule?
Answer: > 100 µM

Question: And the TGI [37]?
Answer: > 100 µM

Question: What about the GI50 [38] of the same molecule?
Answer: > 100 µM

Question: What about the TGI [38] of the same molecule?
Answer: > 100 µM

Question: And the GI50 [39]?
Answer: > 100 µM

Question: What about the TGI [39] of the same molecule?
Answer: > 100 µM

Question: And the GI50 [40]?
Answer: > 100 µM

Question: And the TGI [40]?
Answer: > 100 µM

Question: And the GI50 [41]?
Answer: > 100 µM

Question: What about the TGI [41] of the same molecule?
Answer: > 100 µM

Question: And the GI50 [42]?
Answer: > 100 µM

Question: And the TGI [42]?
Answer: > 100 µM

Question: And the GI50 [43]?
Answer: > 100 µM

Question: And the TGI [43]?
Answer: > 100 µM

Question: And the GI50 [44]?
Answer: > 100 µM

Question: What about the TGI [44] of the same molecule?
Answer: > 100 µM

Question: And the GI50 [45]?
Answer: > 100 µM

Question: What about the TGI [45] of the same molecule?
Answer: > 100 µM

Question: And the GI50 [46]?
Answer: > 100 µM

Question: What about the TGI [46] of the same molecule?
Answer: > 100 µM

Question: And the GI50 [47]?
Answer: > 100 µM

Question: And the TGI [47]?
Answer: > 100 µM

Question: And the GI50 [48]?
Answer: > 100 µM

Question: And the TGI [48]?
Answer: > 100 µM

Question: And the GI50 [49]?
Answer: > 100 µM

Question: What about the TGI [49] of the same molecule?
Answer: > 100 µM

Question: And the GI50 [50]?
Answer: > 100 µM

Question: What about the TGI [50] of the same molecule?
Answer: > 100 µM

Question: And the GI50 [51]?
Answer: > 100 µM

Question: What about the TGI [51] of the same molecule?
Answer: > 100 µM

Question: What about the GI50 [52] of the same molecule?
Answer: > 100 µM

Question: And the TGI [52]?
Answer: > 100 µM

Question: What about the GI50 [53] of the same molecule?
Answer: > 100 µM

Question: What about the TGI [53] of the same molecule?
Answer: > 100 µM

Question: What about the GI50 [54] of the same molecule?
Answer: > 100 µM

Question: What about the TGI [54] of the same molecule?
Answer: > 100 µM

Question: What about the GI50 [55] of the same molecule?
Answer: > 100 µM

Question: What about the TGI [55] of the same molecule?
Answer: > 100 µM

Question: And the GI50 [56]?
Answer: > 100 µM

Question: And the TGI [56]?
Answer: > 100 µM
